The values below come from BindingDB's records for doi:10.1021/bi300490r (University of Pittsburgh, 2012).

Experiment [1] has as its target T1, DNA-(apurinic or apyrimidinic site) endonuclease (Homo sapiens, UniProt P27695). Kind of experiment: Molecular Beacon Assay. The protocol: A fluorescenc-based molecular beacon assay to measure APE-1 protein activity and inhibition was performed as described.
In experiment [2] the target is T1, DNA-(apurinic or apyrimidinic site) endonuclease. As to the kind of experiment: Gel-Based Assay. From the text:
In addition to the real-time fluorescence assay for studying inhibition of APE-1 activity, we also employed a gel-based assay to visualize and quantify repair activity of APE-1 and its inhibition.

T1 sequence (P27695 whole entry): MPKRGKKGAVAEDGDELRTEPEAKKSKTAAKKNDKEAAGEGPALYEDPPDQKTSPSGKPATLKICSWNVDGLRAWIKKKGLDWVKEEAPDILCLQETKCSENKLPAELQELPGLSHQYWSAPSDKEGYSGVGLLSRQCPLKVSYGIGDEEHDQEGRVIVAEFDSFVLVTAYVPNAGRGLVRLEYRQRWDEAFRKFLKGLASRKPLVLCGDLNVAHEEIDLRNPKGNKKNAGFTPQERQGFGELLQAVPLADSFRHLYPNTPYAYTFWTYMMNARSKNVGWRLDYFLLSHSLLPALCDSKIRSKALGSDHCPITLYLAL

As to `COc1cccc(CN=Nc2cc(C)nc3cc4c(cc23)OCO4)c1` [NSC332384, 2], the affinity in experiment [1], expressed as Ki, was 0.22 µM. Inhibition in experiment [2] was half-maximal at 10.1 µM (IC50).
Take `C/C(=N\Nc1cc(C)c2ccccc2n1)c1cn(C)n(-c2ccccc2)c1=O` [NSC332410, 8]: the IC50 in experiment [2] is greater than 100 µM.
Regarding `O=C(O)C(CCCCNc1ccc([N+](=O)[O-])cc1[N+](=O)[O-])Nc1ccc([N+](=O)[O-])cc1[N+](=O)[O-]` (configuration not stated) [NSC89640, 9], the Ki in experiment [1] worked out at 13 µM.
For `CCn1c2ccccc2c2cc(CN=Nc3cc(C)nc4cc5c(cc34)OCO5)ccc21` [NSC332395, 4], the Ki in experiment [1] was determined as 0.12 µM. In experiment [2], the IC50 worked out at 4.1 µM.
In the case of `Cc1cc(N=NCc2ccc3c(c2)OCO3)c2cc3c(cc2n1)OCO3` [NSC332389, 3], the affinity in experiment [1] corresponds to a Ki of 0.19 µM. The same compound returned an IC50 in experiment [2] of 2.9 µM.
Consider `COc1ccc(C(Cc2ccccc2)/N=N/c2ccc([N+](=O)[O-])c([N+](=O)[O-])c2)cc1` (configuration not stated) [NSC131534, 11], for which the affinity in experiment [1], expressed as Ki, was 6.7 µM.
`Cc1ccc2nc(C)cc(N=NC(C)c3cn(C)n(-c4ccccc4)c3=O)c2c1` (configuration not stated) [NSC300598, 7]: in experiment [1], affinity was put at a Ki of 10.9 µM.
Still for that read-out and setting: as for `O=C(CC(=Nc1ccccc1)C(=O)c1ccccc1)c1ccccc1` [NSC402686, 14], the figure is 37 µM; as for `N=c1[nH]nc2nc(CC(=O)c3ccccc3[N+](=O)[O-])c(CC(=O)c3ccccc3[N+](=O)[O-])nn12` [NSC614430, 13], 4.9 µM.
Consider `Cc1cc(N=NC(C)c2cn(C)n(-c3ccccc3)c2=O)c2cc3c(cc2n1)OCO3` (configuration not stated) [NSC332398, 1], for which, in experiment [1], affinity was put at a Ki of 0.18 µM. Besides, the IC50 in experiment [2] came out at 4.4 µM.
In experiment [1], `O=C(/C=C\c1ccc([N+](=O)[O-])cc1)NCCCCNC(=O)/C=C/c1ccc([N+](=O)[O-])cc1` [NSC107215, 10] gave an inhibition constant Ki of 17 µM.
`Cc1cc(N=NCc2c(C)n(C)n(-c3ccccc3)c2=O)c2cc3c(cc2n1)OCO3` [NSC332396, 5] yielded a Ki in experiment [1] of 0.68 µM. The IC50 in experiment [2] came to 34.4 µM.
